# Test results: patent publication US9120770B2, “Substituted pyridine and pyrazine compounds as PDE4 inhibitors” (DART NEUROSCIENCE (CAYMAN) LTD., priority 2013, dated 2015)
# Biological target: PDE4D3 (Homo sapiens, UniProt Q08499)
# Sequence (Q08499 1-673 isoform Q08499-2): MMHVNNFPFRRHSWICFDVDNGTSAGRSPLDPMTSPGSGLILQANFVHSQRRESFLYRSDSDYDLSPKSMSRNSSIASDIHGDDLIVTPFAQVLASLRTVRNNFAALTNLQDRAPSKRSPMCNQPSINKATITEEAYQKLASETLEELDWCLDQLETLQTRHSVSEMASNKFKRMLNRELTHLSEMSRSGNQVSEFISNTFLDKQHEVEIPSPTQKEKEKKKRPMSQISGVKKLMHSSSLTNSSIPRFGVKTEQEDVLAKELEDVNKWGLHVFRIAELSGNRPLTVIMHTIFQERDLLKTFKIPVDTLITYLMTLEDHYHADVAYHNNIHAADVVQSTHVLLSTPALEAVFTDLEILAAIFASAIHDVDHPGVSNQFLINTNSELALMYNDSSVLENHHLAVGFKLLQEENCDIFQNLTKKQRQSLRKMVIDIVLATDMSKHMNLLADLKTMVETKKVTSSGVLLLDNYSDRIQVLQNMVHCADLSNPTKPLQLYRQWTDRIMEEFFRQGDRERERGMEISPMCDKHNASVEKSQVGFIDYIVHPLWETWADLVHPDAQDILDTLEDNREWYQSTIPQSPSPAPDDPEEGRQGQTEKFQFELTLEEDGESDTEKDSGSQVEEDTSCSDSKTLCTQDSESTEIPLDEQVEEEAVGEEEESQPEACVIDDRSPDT
row,EC50 [nM],Compound
1,100 to 1000,"CNc1ncc(Cc2cnc(OC)c(-c3cccc(Cl)c3)c2)cn1 [Example 81, 5-{[5-(3-Chlorophenyl)-6-methoxypyridin-3-yl]methyl}-N-methylpyrimidin-2-amine]"
2,< 100,"COc1ncc(Cc2cnc(NC3CC3)nc2)cc1-c1cccc(Cl)c1 [Example 82, 5-{[5-(3-Chlorophenyl)-6-methoxypyridin-3-yl]methyl}-N-cyclopropylpyrimidin-2-amine]"
3,100 to 1000,"COc1ncc(Cc2cnc(N(C)C)nc2)cc1-c1cccc(Cl)c1 [Example 83, 5-{[5-(3-Chlorophenyl)-6-methoxypyridin-3-yl]methyl}-N,N-dimethylpyrimidin-2-amine]"
4,< 100,"COc1ncc(Cc2cnc(NCC(F)(F)F)nc2)cc1-c1cccc(Cl)c1 [Example 84, 5-{[5-(3-Chlorophenyl)-6-methoxypyridin-3-yl]methyl}-N-(2,2,2-trifluoroethyl)pyrimidin-2-amine]"
5,100 to 1000,"COc1ncc(Cc2ccc(C#N)cc2)nc1-c1cccc(Cl)c1 [Example 86, 4-{[6-(3-Chlorophenyl)-5-methoxypyrazin-2-yl]methyl}benzonitrile]"
6,100 to 1000,"COc1ncc(Cc2ccc(F)cc2)cc1-c1cccc(Cl)c1 [Example 88, 3-(3-Chlorophenyl)-5-[(4-fluorophenyl)methyl]-2-methoxypyridine]"
7,< 100,"CNc1ncc(Cc2cnc(OC(F)F)c(-c3cccc(Cl)c3)c2)cn1 [Example 93, 5-{[5-(3-Chlorophenyl)-6-(difluoromethoxy)pyridin-3-yl]methyl}-N-methylpyrimidin-2-amine]"
8,100 to 1000,"FC(F)Oc1ncc(Cc2cnc(NCC(F)(F)F)nc2)cc1-c1cccc(Cl)c1 [Example 94, 5-{[5-(3-Chlorophenyl)-6-(difluoromethoxy)pyridin-3-yl]methyl}-N-(2,2,2-trifluoroethyl)pyrimidin-2-amine]"
9,100 to 1000,"FC(F)Oc1ncc(Cc2cnoc2)cc1-c1cccc(Cl)c1 [Example 97, 3-(3-Chlorophenyl)-2-(difluoromethoxy)-5-(1,2-oxazol-4-ylmethyl)pyridine]"

# More lines, now with the values behind:
row,Compound,EC50 [nM]
1,"COc1ncc(Cc2cn[nH]c2)cc1-c1cccc(Cl)c1 [Example 80, 3-(3-Chlorophenyl)-2-methoxy-5-(1H-pyrazol-4-ylmethyl)pyridine]",< 100
2,"COC(=O)c1ccc(Cc2cnc(OC)c(-c3cccc(Cl)c3)n2)cc1 [Example 85, Methyl 4-{[6-(3-chlorophenyl)-5-methoxypyrazin-2-yl]methyl}benzoate]",100 to 1000
3,"COc1ncc(Cc2cnc(N)nc2)nc1-c1cccc(Cl)c1 [Example 87, 5-{[6-(3-Chlorophenyl)-5-methoxypyrazin-2-yl]methyl}pyrimidin-2-amine]",< 100
4,"Nc1ncc(Cc2cnc(OC(F)F)c(-c3cccc(Cl)c3)c2)cn1 [Example 89, 5-{[5-(3-Chlorophenyl)-6-(difluoromethoxy)pyridin-3-yl]methyl}pyrimidin-2-amine]",< 100
5,"COc1ncc(Cc2ccc(C(N)=O)nc2)nc1-c1cccc(Cl)c1 [Example 90, 5-{[6-(3-Chlorophenyl)-5-methoxypyrazin-2-yl]methyl}pyridine-2-carboxamide]",100 to 1000
6,"FC(F)Oc1ncc(Cc2cnc(NC3CC3)nc2)cc1-c1cccc(Cl)c1 [Example 91, 5-{[5-(3-Chlorophenyl)-6-(difluoromethoxy)pyridin-3-yl]methyl}-N-cyclopropylpyrimidin-2-amine]",100 to 1000
7,"COc1ncc(Cc2cnc(OC(F)F)c(-c3cccc(Cl)c3)c2)cn1 [Example 92, 5-{[5-(3-Chlorophenyl)-6-(difluoromethoxy)pyridin-3-yl]methyl}-2-methoxypyrimidine]",< 100
8,"COc1ncc(Cc2cnoc2)nc1-c1cccc(Cl)c1 [Example 95, 3-(3-Chlorophenyl)-2-methoxy-5-(1,2-oxazol-4-ylmethyl)pyrazine]",< 100
9,"COc1ncc(Cc2cnoc2)cc1-c1cccc(Cl)c1 [Example 96, 3-(3-Chlorophenyl)-2-methoxy-5-(1,2-oxazol-4-ylmethyl)pyridine]",100 to 1000
